PubChem BioAssay AID2060886 (Molecular Pharmacology Branch, DTP, NCI, 2025)
Blank lines part the entries; values can stand above or below the molecule they belong to.

Tested on: 653999-131-R-J2-PDC complex spheroids, growth inhibition
Assay: Anticancer human tumor 653999-131-R-J2-PDC patient-derived lung adenocarcinoma cell line growth inhibition [RAS]
Conditions: for viability, T/C: stronger effect = lower value
Description: RAS pathway inhibitors in Combinations in Complex Spheroids
A high-throughput screen of multi-cell type tumor spheroids was designed to identify active combinations of RAS pathway inhibitors and targeted small molecules. Complex spheroids include a stromal component modeled by human endothelial cells (HUVEC) and fibroblasts modeled by human mesenchymal stem cells (MSCs). The concentration ranges selected for each drug and investigational agent were based upon clinically achievable concentrations if the clinical Cmax of the agent was known.
Compounds. The drugs and investigational agents: abemaciclib (NSC768073), cobimetinib (NSC768068), divarasib (GDC6063, NSC841802), docetaxel (NSC628503), GDC-1971 (RLY-1971, NSC841576), gemcitabine (NSC613327), inavolisib (NSC800729), ipatasertib (NSC767898), KB-0742 (NSC834161), MRTX-1133 (NSC836407), osimertinib (NSC779217), RMC-4630 (NSC839698), RMC-6236 (NSC851965), RMC-6291 (NSC852671), Ro-3306 (NSC812927), sapanisertib (NSC764658), SN-38 (NSC673596), staurosporine (NSC755774), SY5609 (NSC837396), and tovorafenib (DAY101, NSC766906), were obtained from the National Cancer Institute (NCI) Developmental Therapeutics Program Chemical Repository. The FDA-approved anticancer drug set is available from the NCI Developmental Therapeutics Program. […] The stock solutions were prepared in dimethyl sulfoxide (DMSO, Sigma-Aldrich, St. Louis, MO, cat. D2650) at 800-fold the tested concentration and stored at -70 degrees C prior to their use. All drugs and investigational agents were tested over a range starting from a high concentration at or near the clinical Cmax and decreasing in half-log increments. If the clinical Cmax for an agent had not been determined, the highest concentration tested was 10 microM.
Cell Culture. All cells were maintained in an incubator at 37 degrees C and 5% CO2 with 95% humidity. The PDC lines were cultured according to standard operating procedures established by the NCI PDMR. All PDCs were thawed and cultured in Matrigel-coated flasks prepared with a working solution of 1X Ham's F-12 nutrient mix, without supplementation (Invitrogen, Waltham, MA, cat. 11765054), 100 U/mL penicillin-streptomycin (Invitrogen, cat. 15140122), and 2.5% Matrigel (Corning Inc., Corning, NY, cat. 354248) for the first three passages. The 362531-283-R-J2-PDC and 782815-120-R-J1-PDC lines were cultured in 6C/Colon 1B media, which includes advanced DMEM/F-12 (Thermo Fisher Scientific, cat. 12634028), 10 mM HEPES (Thermo Fisher Scientific, cat. 15630080), 1X GlutaMAX supplement (Thermo Fisher Scientific, cat. 35050061), 0.1 mg/mL primocin (InvivoGen, San Diego, CA, cat. ant-pm-2), 10% defined fetal bovine serum, heat inactivated (HyClone Laboratories Inc., Logan, UT, cat. SH30070.03HI), 50% L-WRN conditioned media (ATCC, cat. CRL-3276), 1.25 mM N-Acetyl-L-cysteine (Sigma-Aldrich, cat. A9165), 10 mM nicotinamide (Sigma-Aldrich, cat. N0636), 1X B-27 supplement (Thermo Fisher Scientific, cat. 17504044), 1X N-2 supplement (Thermo Fisher Scientific, cat. 17502048), 50 ng/mL human EGF (Thermo Fisher Scientific, cat. PHG0311), and 10 microM Y-27632 dihydrochloride (Tocris Bioscience, cat. 1254). The K12877-001-R-J1-PDC line was cultured in 6I media, which includes all 6C/Colon 1B media plus 10 ng/mL human FGF-10 (PeproTech, cat. 100-26), 1 ng/mL human FGF-2 (PeproTech, cat. 100-18B), 1 µM prostaglandin E2 (Tocris Bioscience, cat. 2296), […] hydrocortisone (Sigma-Aldrich, cat. H4001), and […] bovine insulin (Sigma-Aldrich, cat. I6634). The K86415-001-R-J1-PDC line was cultured in 6D media, which includes all 6C/Colon 1B media components minus the L-WRN conditioned media. The 485176-168-R4-J1-PDC was cultured in PANC media, which includes all 6C/Colon 1B media plus 100 ng/mL human FGF-10 (PeproTech, cat. 100-26), 500 nM SB-431542 (Selleckchem, cat. S1067), and 10 nM gastrin (Tocris Bioscience, cat. 3006). […]
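Note: spheroids exposed to the agents for seven days before the readout.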

IC50 (curve of compound): > 300 nM
Compound: CC1(C)CCC(Nc2ncc(C(F)(F)F)c(-c3c[nH]c4c(P(C)(C)=O)c(C#N)ccc34)n2)CN1 (centres undefined)
viability, T/C (compound 0.000949 µM): 87.8% [middle of 4 runs]
viability, T/C (compound 0.003 µM): 75.3% [middle of 4 runs]
viability, T/C (compound 0.00949 µM): 72% [middle of 4 runs]
viability, T/C (compound 0.03 µM): 71.6% [middle of 4 runs]
viability, T/C (compound 0.0949 µM): 71.7% [middle of 4 runs]
viability, T/C (compound 0.3 µM): 61.9% [middle of 4 runs]

IC50 (curve of first compound, second compound 0.000949 µM): 1280 nM
IC50 (curve of first compound, second compound 0.003 µM): 722 nM
IC50 (curve of first compound, second compound 0.00949 µM): 195 nM
IC50 (curve of first compound, second compound 0.03 µM): < 31.6 nM
IC50 (curve of first compound, second compound 0.0949 µM): < 31.6 nM
IC50 (curve of first compound, second compound 0.3 µM): < 31.6 nM
Compound: CCC(CC)c1cc(NC2CCC(N)C2)n2nccc2n1 (centres undefined) + CCn1c(-c2cc(N3CCN(C)CC3)cnc2C(C)OC)c2c3cc(ccc31)-c1csc(n1)CC(NC(=O)C1CC1C)C(=O)N1CCCC(N1)C(=O)OCC(C)(C)C2
viability, T/C (second compound 0.000949 µM, first compound 0.0316 µM): 84.6%
viability, T/C (second compound 0.000949 µM, first compound 0.1 µM): 101%
viability, T/C (second compound 0.000949 µM, first compound 0.316 µM): 91.2%
viability, T/C (second compound 0.000949 µM, first compound 1 µM): 59.9%
viability, T/C (second compound 0.000949 µM, first compound 3.16 µM): 12%
viability, T/C (second compound 0.000949 µM, first compound 10 µM): 15%
viability, T/C (second compound 0.003 µM, first compound 0.0316 µM): 59.1%
viability, T/C (second compound 0.003 µM, first compound 0.1 µM): 88.6%
viability, T/C (second compound 0.003 µM, first compound 0.316 µM): 84.2%
viability, T/C (second compound 0.003 µM, first compound 1 µM): 39.2%
viability, T/C (second compound 0.003 µM, first compound 3.16 µM): 10.5%
viability, T/C (second compound 0.003 µM, first compound 10 µM): 18.8%
viability, T/C (second compound 0.00949 µM, first compound 0.0316 µM): 55.8%
viability, T/C (second compound 0.00949 µM, first compound 0.1 µM): 56.5%
viability, T/C (second compound 0.00949 µM, first compound 0.316 µM): 45.6%
viability, T/C (second compound 0.00949 µM, first compound 1 µM): 26.4%
viability, T/C (second compound 0.00949 µM, first compound 3.16 µM): 16.4%
viability, T/C (second compound 0.00949 µM, first compound 10 µM): 17.4%
viability, T/C (second compound 0.03 µM, first compound 0.0316 µM): 38.8%
viability, T/C (second compound 0.03 µM, first compound 0.1 µM): 51%
viability, T/C (second compound 0.03 µM, first compound 0.316 µM): 29.6%
viability, T/C (second compound 0.03 µM, first compound 1 µM): 20.4%
viability, T/C (second compound 0.03 µM, first compound 3.16 µM): 12.5%
viability, T/C (second compound 0.03 µM, first compound 10 µM): 18.8%
viability, T/C (second compound 0.0949 µM, first compound 0.0316 µM): 29.3%
viability, T/C (second compound 0.0949 µM, first compound 0.1 µM): 27.8%
viability, T/C (second compound 0.0949 µM, first compound 0.316 µM): 28.9%
viability, T/C (second compound 0.0949 µM, first compound 1 µM): 12.1%
viability, T/C (second compound 0.0949 µM, first compound 3.16 µM): 11.7%
viability, T/C (second compound 0.0949 µM, first compound 10 µM): 18.9%
viability, T/C (second compound 0.3 µM, first compound 0.0316 µM): 29.8%
viability, T/C (second compound 0.3 µM, first compound 0.1 µM): 24.9%
viability, T/C (second compound 0.3 µM, first compound 0.316 µM): 26.4%
viability, T/C (second compound 0.3 µM, first compound 1 µM): 12.7%
viability, T/C (second compound 0.3 µM, first compound 3.16 µM): 13.3%
viability, T/C (second compound 0.3 µM, first compound 10 µM): 17.5%

Compound: CC(=O)OC12COC1CC(O)C1(C)C(=O)C(O)C3=C(C)C(OC(=O)C(O)C(NC(=O)OC(C)(C)C)c4ccccc4)CC(O)(C(OC(=O)c4ccccc4)C21)C3(C)C (centres undefined)
viability, T/C (compound 0.0316 µM): 57.5% [middle of 4 runs]
viability, T/C (compound 0.1 µM): 58.8% [middle of 4 runs]
viability, T/C (compound 0.316 µM): 55.9% [middle of 4 runs]
viability, T/C (compound 1 µM): 61.6% [middle of 4 runs]
viability, T/C (compound 10 µM): 67.2% [middle of 4 runs]
